Experimental data as given in ChEMBL document CHEMBL1201862, “PubChem BioAssay data set” (2004).
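Tested at 5 concentrations; 48 h exposure; 96-well plates; endpoints linearly interpolated, else capped at highest concentration. The concentration for 50% growth inhibition is given as GI50.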 Activity calls are given as the source filed them. No stated cut-off is given here; in the data, active = GI50 up to about 1.1 µM and inactive = higher.

Columns and labels:
Assay in all cases: NCI-60 cell line screen, 48 h
HL-60 = system: HL-60
RXF 393 = system: RXF 393
HCT-15 = system: HCT-15
SF-295 = system: SF-295
HOP-62 = system: HOP-62
HOP-18 = system: HOP-18
MOLT-4 = system: MOLT-4
Malme-3M = system: Malme-3M
A498 = system: A498
SK-MEL-2 = system: SK-MEL-2
OVCAR-5 = system: OVCAR-5
HCT-116 = system: HCT-116
OVCAR-3 = system: OVCAR-3
IGROV-1 = system: IGROV-1
RPMI-8226 = system: RPMI-8226
SW-620 = system: SW-620
NCI/ADR-RES = system: NCI/ADR-RES
MDA-MB-435 = system: MDA-MB-435
T47D = system: T47D
Hs-578T = system: Hs-578T

Compound	GI50 (HL-60)	GI50 (RXF 393)	GI50 (HCT-15) [µM]	GI50 (SF-295)	GI50 (HOP-62)	GI50 (HOP-18)	GI50 (MOLT-4)	GI50 (Malme-3M)	GI50 (A498)	GI50 (SK-MEL-2)	GI50 (OVCAR-5)	GI50 (HCT-116)	GI50 (OVCAR-3)	GI50 (IGROV-1)	GI50 (RPMI-8226)	GI50 (SW-620)	GI50 (NCI/ADR-RES)	GI50 (MDA-MB-435)	GI50 (T47D)	GI50 (Hs-578T)
O=C(c1ccccc1)C1OC12C(=O)Nc1c(Cl)cc(Cl)cc12 (stereo not given)	16.4 µM (inactive)	24.4 µM (inactive)	24.3	47.2 µM (inactive)	> 55.2 µM (inactive)	> 54.7 µM (inactive)	10.2 µM (inactive)	> 74.5 µM (inactive)	> 92 µM (inactive)	99.1 µM (inactive)	> 100 µM (inactive)	23.7 µM (inactive)	60.3 µM (inactive)	> 59.4 µM (inactive)	47.5 µM (inactive)	16.1 µM (inactive)	–	–	–	–
CC[C@@]1(O)C(=O)OCc2c1cc1n(c2=O)Cc2c-1nc1ccccc1c2Cl	< 0.01 µM (active)	< 0.0132 µM (active)	0.267	< 0.01 µM (active)	< 0.01 µM (active)	0.0598 µM (active)	< 0.01 µM (active)	0.239 µM (active)	0.0237 µM (active)	0.396 µM (active)	0.0811 µM (active)	0.0168 µM (active)	0.296 µM (active)	0.211 µM (active)	< 0.0151 µM (active)	0.0348 µM (active)	< 0.01 µM (active)	0.0984 µM (active)	< 0.01 µM (active)	4.52 µM (inactive)
O=C1NC(=S)NC(=O)C1=Cc1ccc[nH]1	5.27 µM (inactive)	2.2 µM (inactive)	2.87	10.5 µM (inactive)	32.6 µM (inactive)	36.4 µM (inactive)	16.2 µM (inactive)	19.9 µM (inactive)	35.2 µM (inactive)	19.7 µM (inactive)	23.2 µM (inactive)	3.48 µM (inactive)	7.38 µM (inactive)	19.6 µM (inactive)	3.41 µM (inactive)	4.81 µM (inactive)	–	–	–	–
C[N+]1=c2c3cccc4cccc(c(=O)n2CCC1)c43	4.36 µM (inactive)	22.1 µM (inactive)	35.6	40.4 µM (inactive)	31 µM (inactive)	53.8 µM (inactive)	19.9 µM (inactive)	18 µM (inactive)	18.5 µM (inactive)	16.6 µM (inactive)	17.8 µM (inactive)	16.1 µM (inactive)	22.9 µM (inactive)	36 µM (inactive)	19.6 µM (inactive)	25.2 µM (inactive)	–	–	–	–
O=C1c2c(O)cccc2C(C(=O)CCCCC(=O)C2c3cccc(O)c3C(=O)c3c(O)cccc32)c2cccc(O)c21	0.485 µM (active)	–	0.662	0.469 µM (active)	0.618 µM (active)	0.652 µM (active)	0.979 µM (active)	1.38 µM (inactive)	1.56 µM (inactive)	0.54 µM (active)	0.528 µM (active)	0.67 µM (active)	0.547 µM (active)	–	0.457 µM (active)	0.925 µM (active)	–	0.809 µM (active)	0.442 µM (active)	0.176 µM (active)
